From the supplement of paper PMC3493320 come the findings set out here.

The test system of this test is NCI-H295R. Put plainly: IC50 (antiproliferative, ATP content). As to conditions: 48 h. Summed up:
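Adrenocortical carcinoma cells (1500 per well) were seeded in serum-free ITS-supplemented DMEM in 1536-well plates and cultured overnight. Library compounds were then pin-transferred at 8 final concentrations from 0.6 nM to 46 µM, and plates were kept 48 h at 37 °C, 5% CO2. ATP was read as CellTiter-Glo luminescence after 20 min at room temperature and normalised to vehicle (0%) and positive control (100% inhibition). IC50 came from four-parameter logistic fits; compounds with no concentration response were recorded as above the top dose.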
With `CN[C@@H](C)[C@@H]1CC[C@@H](N)[C@@H](O[C@H]2[C@H](O)[C@@H](O[C@H]3OC[C@](C)(O)[C@H](NC)[C@H]3O)[C@H](N)C[C@@H]2N)O1.O=S(=O)(O)O`, the IC50 (in general, the concentration that inhibits the measured activity by half) was over 46 µM.

Turning to `CO[C@H]1C=CO[C@@]2(C)Oc3c(C)c(O)c4c(c3C2=O)C2=NC3(CCN(CC(C)C)CC3)NC2=C(NC(=O)/C(C)=C\C=C\[C@H](C)[C@H](O)[C@@H](C)[C@@H](O)[C@@H](C)[C@H](OC(C)=O)[C@@H]1C)C4=O`, the IC50 was over 46 µM.

`CCCOc1ccccc1-c1nc2[nH]nnc2c(=O)[nH]1`: the IC50 was over 46 µM.

`O=C([C@H]([C@]4=CC=CC=C4)CO)O[C@@H]1C[C@@H]3[C@@H]2[C@@H](O2)[C@@H]([N@+]([O-])3C)C1.Br` yielded an IC50 of over 46 µM.

For the compound `CC=CC1=C(C(=O)O)N2C(=O)[C@@H](NC(=O)[C@H](N)c3ccc(O)cc3)[C@H]2SC1.O`, the IC50 was over 46 µM.

On to `CCCCCCCCCCCCOS(=O)(=O)[O-].[Na+]`, for which the half-inhibitory concentration (IC50) is over 46 µM.

Compound `[NH2][Pt]([NH2])([Cl])[Cl]` yielded an IC50 of over 46 µM.

`O=C(Nc1ccc([N+](=O)[O-])cc1)Nc1ccc([N+](=O)[O-])cc1`: the 50% inhibitory concentration (IC50) is over 46 µM.

The compound `n\24c1c(CCN3[C@H]1[C@](/C=C/2C(=O)OCC)(CCC3)CC)c5c4cccc5` displayed a concentration for half-maximal inhibition (IC50) of over 46 µM.

As for `COC(=O)C(c1ccccc1)C1CCCCN1.Cl` (stereo not drawn), the half-inhibitory concentration (IC50) is over 46 µM.

Take `CC(Cc1ccccc1)NCc1ccccc1Cl.Cl` (stereo not drawn): the IC50 is over 46 µM.

`CNCCCC12CCC(c3ccccc31)c1ccccc12`: the half-maximal inhibitory concentration (IC50) was over 46 µM.

As for `C=C[C@H]1CN2CC[C@H]1C[C@@H]2[C@@H](O)c1ccnc2ccc(OC)cc12`, the 50% inhibitory concentration (IC50) was over 46 µM.

In turn, `CCCCCCCCCCCCCCCCCCCCCC(=O)Nc1ccn([C@@H]2O[C@H](CO)[C@@H](O)[C@@H]2O)c(=O)n1` came in with an IC50 of over 46 µM.

`O=C([O-])CC(O)C(=O)[O-].[Na+].[Na+]` (stereo not drawn): the 50% inhibitory concentration (IC50) was over 46 µM.

`CC(O)[C@H]1CC[C@H]2[C@@H]3CC[C@@H]4C[C@@H](O)CC[C@]4(C)[C@H]3CC[C@]12C` (stereo partly drawn) had an IC50 of over 46 µM.

The compound `O=C(OOC(=O)c1ccccc1)c1ccccc1` displayed an IC50 of over 46 µM.

Compound `CC(=O)OC[C@H]2O[C@@H](N1\N=C/C(=O)NC1=O)[C@H](OC(C)=O)[C@@H]2OC(C)=O` registered an IC50 of over 46 µM.

`CC(CCc1ccccc1)NCC(O)c1ccc(O)c(C(N)=O)c1.Cl` (stereo not drawn) displayed an IC50 of over 46 µM.

On to `CCCCO`, for which the concentration for half-maximal inhibition (IC50) is over 46 µM.

In turn, `CCCCCCCCCCCCSCCOCCO` displayed an IC50 of over 46 µM.

Take `Cc1c[nH]c2ccccc12`: the IC50 is over 46 µM.

Compound `CN1CCN(C(=O)C2CCCCC2)CC1` registered an IC50 of over 46 µM.

Compound `C[N+](C)(C)CC(O)CC(=O)[O-].Cl` (stereo not drawn) gave a 50% inhibitory concentration (IC50) of over 46 µM.

The compound `CNCCc1ccccn1.CS(=O)(=O)O` gave a half-maximal inhibitory concentration (IC50) of over 46 µM.

The compound `CC(CCc1ccc(O)cc1)NCCc1ccc(O)c(O)c1` (stereo not drawn) yielded an IC50 of over 46 µM.

Consider `CCCc1ccc(C(=O)O)cc1`, for which the half-maximal inhibitory concentration (IC50) was over 46 µM.

Turning to `CCN(CC)CCNC(=O)c1ccc(NC(C)=O)cc1.Cl`, the IC50 was over 46 µM.

In turn, `NC1=NC(=O)N2CC12` (stereo not drawn) came in with an IC50 of over 46 µM.

As to `O=C(CCCN1CC=C(n2c(=O)[nH]c3ccccc32)CC1)c1ccc(F)cc1`, the IC50 was over 46 µM.

With `Cc1ccc(/C(=C\CN2CCCC2)c2ccccn2)cc1`, the IC50 is over 46 µM.

The compound `CC(C)NCC(O)COc1cccc2[nH]ccc12` (stereo not drawn) showed a 50% inhibitory concentration (IC50) of over 46 µM.

`Cc1ccc(S(=O)(=O)N[C@H](CCCCN)C(=O)CCl)cc1.Cl`: the concentration for half-maximal inhibition (IC50) was over 46 µM.

Compound `CCC(N)Cc1c[nH]c2ccccc12` (stereo not drawn) registered an IC50 of over 46 µM.

For the compound `CC1(C)S[C@@H]2[C@H](NC(=O)C(C(=O)[O-])c3ccsc3)C(=O)N2[C@H]1C(=O)[O-].[Na+].[Na+]` (stereo partly drawn), the IC50 was over 46 µM.

`Cc1nnc2n1-c1ccc(Cl)cc1C(c1ccccc1Cl)=NC2` displayed an IC50 of over 46 µM.

Compound `CC(C(=O)O)c1ccc2c(c1)[nH]c1ccc(Cl)cc12` (stereo not drawn) yielded an IC50 of over 46 µM.

`CN1CCN(C2=Nc3ccccc3Oc3ccc(Cl)cc32)CC1.O=C(O)CCC(=O)O` registered a concentration for half-maximal inhibition (IC50) of over 46 µM.

`C=CCSSSCC=C` had an IC50 of over 46 µM.

`O=C(C=Cc1ccccc1)OCc1ccccc1`: the IC50 is over 46 µM.

Compound `CC(C)NCC(O)COc1ccc(COCCOC(C)C)cc1.CC(C)NCC(O)COc1ccc(COCCOC(C)C)cc1.O=C(O)/C=C/C(=O)O` (stereo not drawn) had a 50% inhibitory concentration (IC50) of over 46 µM.

With `CC(C)(C)OC(=O)c1ncn2c1[C@@H]1CCCN1C(=O)c1c(Br)cccc1-2`, the 50% inhibitory concentration (IC50) was over 46 µM.

For `C#Cc1cccc(Nc2ncnc3cc(OCCOC)c(OCCOC)cc23)c1`, the IC50 was over 46 µM.

`O=c1oc2c(O)c(O)cc3c(=O)oc4c(O)c(O)cc1c4c23`: the concentration for half-maximal inhibition (IC50) was over 46 µM.

The compound `OC[C@H]1O[C@@](CO)(O[C@H]2O[C@H](CO)[C@@H](O)[C@H](O)[C@H]2O)[C@@H](O)[C@@H]1O` registered an IC50 of over 46 µM.

`CCCCCCCC(=O)O`: the IC50 was over 46 µM.

`CCCCCCCCOC(=O)c1ccccc1C(=O)OCCCCCCCC` displayed an IC50 of over 46 µM.

`C[C@]12CC[C@H]3[C@@H](CCC4=C(O)C(=O)CC[C@@H]43)[C@@H]1CC[C@@H]2OC(=O)CCC1CCCC1` returned a half-inhibitory concentration (IC50) of over 46 µM.

Turning to `CC(=O)c1ccc(S(=O)(=O)NC(=O)NC2CCCCC2)cc1`, the IC50 is over 46 µM.

The compound `COc1nc(N)nc2c1ncn2[C@@H]1O[C@H](CO)[C@@H](O)[C@@H]1O` yielded a half-inhibitory concentration (IC50) of over 46 µM.

Regarding `CCC(=O)O.CCC(=O)O.O=C(Nc1cccc(C2=NCCN2)c1)Nc1cccc(C2=NCCN2)c1`, the IC50 is over 46 µM.

`CC1(C)O[C@@H]2[C@@H](CO[C@@]3(COS(N)(=O)=O)OC(C)(C)O[C@@H]23)O1`: the IC50 was over 46 µM.

In turn, `C=CCOc1ccccc1OCC(O)CNC(C)C.Cl` (stereo not drawn) gave an IC50 of over 46 µM.

Consider `O=C(O)Cc1ccc(CCNS(=O)(=O)c2ccc(Cl)cc2)cc1`, for which the IC50 is over 46 µM.

`C=CCn1c(=O)n([C@@H]2O[C@H](CO)[C@@H](O)[C@H]2O)c2nc(N)[nH]c(=O)c21`: the IC50 was over 46 µM.

In the case of `CCN(C)C(=O)Oc1cccc([C@H](C)N(C)C)c1.O=C(O)[C@@H](O)[C@H](O)C(=O)O`, the IC50 is over 46 µM.

`COC1[C@@H](O[C@@H]2O[C@H](C)[C@@H](O[C@H]3C[C@@](C)(O)[C@H](OC(=O)CC(C)C)[C@H](C)O3)[C@H](N(C)C)[C@H]2O)[C@@H](CC=O)C[C@@H](C)[C@@H](O)/C=C/C=C/C[C@@H](C)OC(=O)C[C@H]1OC(C)=O` (stereo partly drawn) displayed a half-maximal inhibitory concentration (IC50) of over 46 µM.

`OCC1(CO)COC(C(Cl)(Cl)Cl)OC1` had a half-inhibitory concentration (IC50) of over 46 µM.

As for `O=C(O)c1ccccn1`, the IC50 was over 46 µM.

Consider `CC[C@H]1OC(=O)C[C@@H](O)[C@H](C)[C@@H](O[C@@H]2O[C@H](C)[C@@H](O)[C@H](N(C)C)[C@H]2O)[C@@H](CCN2C[C@H](C)C[C@H](C)C2)C[C@@H](C)C(=O)/C=C/C(C)=C/[C@@H]1CO[C@@H]1O[C@H](C)[C@@H](O)[C@@H](OC)[C@H]1OC`, for which the half-inhibitory concentration (IC50) was over 46 µM.

As for `CNCc1ccccc1.Cl`, the IC50 was over 46 µM.

`CC[N+]1(C)CCCC(OC(=O)C(O)(c2ccccc2)c2ccccc2)C1.[Br-]` (stereo not drawn) yielded an IC50 of over 46 µM.

In the case of `Cc1cc(C)c(NC(=O)CN(CC(=O)O)CC(=O)O)c(C)c1Br`, the IC50 was over 46 µM.

For `O=P(O)(O)O`, the half-inhibitory concentration (IC50) was over 46 µM.

Compound `CC(=O)Oc1c(C)c(C)c2c(c1C)CCC(C)(CCCC(C)CCCC(C)CCCC(C)C)O2` (stereo not drawn) registered a concentration for half-maximal inhibition (IC50) of over 46 µM.

`C[N+](C)(C)CCCCCCCCCC[N+](C)(C)C.[Br-].[Br-]` came in with an IC50 of over 46 µM.

`NS(=O)(=O)c1cc(C2(O)NC(=O)c3ccccc32)ccc1Cl` (stereo not drawn) returned an IC50 of over 46 µM.

As to `Oc1ccc2[nH]cc(CCCCN3CC=C(c4ccccc4)CC3)c2c1`, the 50% inhibitory concentration (IC50) was over 46 µM.

Take `CCCCCCCCCCCCCCCCCCO`: the IC50 was over 46 µM.

`C[Si](C)(C)O[Si](C)(C)C` came in with a 50% inhibitory concentration (IC50) of over 46 µM.

In the case of `O=S(=O)(O)c1ccc(O)cc1`, the IC50 was over 46 µM.

Consider `CC(=C(CCO)SSC(CCO)=C(C)N(C=O)Cc1cnc(C)nc1N)N(C=O)Cc1cnc(C)nc1N`, for which the IC50 is over 46 µM.

`O=C(Nc1ccc(Cl)c(Cl)c1)C1CC1` had an IC50 of over 46 µM.

Regarding `COP(=S)(OC)Oc1ccc(SC)c(C)c1`, the half-maximal inhibitory concentration (IC50) was over 46 µM.

With `Cc1ccccc1-n1c(C)nc2ccccc2c1=O`, the IC50 was over 46 µM.

`[C@]13([C@@](C(=O)CO)(CC[C@H]1[C@@H]2CCC=4[C@@]([C@H]2[C@H](C3)O)(\C=C/C(C=4)=O)C)O)C` displayed an IC50 of over 46 µM.

Consider `CCn1cc(C(=O)O)c(=O)c2cc(F)c(N3CCNC(C)C3)c(F)c21.Cl` (stereo not drawn), for which the concentration for half-maximal inhibition (IC50) is over 46 µM.

`CCCCC/C=C\C/C=C\CCCCCCCC(=O)OCC` had a half-inhibitory concentration (IC50) of over 46 µM.

`NCCN`: the IC50 is over 46 µM.

Turning to `Cc1nc(Nc2ncc(C(=O)Nc3c(C)cccc3Cl)s2)cc(N2CCN(CCO)CC2)n1`, the 50% inhibitory concentration (IC50) is over 46 µM.

For `Cc1cc(C(C)(C)C)c(O)c(C)c1CC1=NCCN1`, the IC50 is over 46 µM.

Regarding `O=C1C[N+]([O-])=C(c2ccccc2)c2cc(Cl)ccc2N1`, the IC50 was over 46 µM.

Turning to `CC(C)(C)NCC(O)c1ccccc1Cl.Cl` (stereo not drawn), the IC50 was over 46 µM.

For the compound `ClC1C(Cl)C(Cl)C(Cl)C(Cl)C1Cl` (stereo not drawn), the IC50 is over 46 µM.

In the case of `COc1nc(C)nc(Cl)c1NC1=NCCN1`, the IC50 was over 46 µM.

Take `O=C1OC(c2ccc(O)c(S(=O)(=O)[O-])c2)(c2ccc(O)c(S(=O)(=O)[O-])c2)c2c(Br)c(Br)c(Br)c(Br)c21.[Na+].[Na+]`: the IC50 was over 46 µM.

Compound `Cc1cnc(C(=O)O)c[n+]1[O-]` gave a 50% inhibitory concentration (IC50) of over 46 µM.

The compound `NC(=O)OCC(O)COc1ccc(Cl)cc1` (stereo not drawn) showed an IC50 of over 46 µM.
